Results: patent EP0845217A1, “Inhibiting undesirable taste in oral compositions” (priority 1996, dated 1998)
Counter-ions that a name gives are not always drawn.

Experiments:
mud puppy taste cells = test: Response of isolated taste cells to bitter-tasting compounds, intracellular calcium fluorescence; type: cell-based; settings: for effect on taste cell response to denatonium benzoate: inhibitor mixed with denatonium benzoate; for effect on taste cell response to dextromethorphan: inhibitor mixed with dextromethorphan; for taste cell response to bitter tasting compound: bitter compound alone
Procedure: Taste cells are isolated from the mud puppy, a type of salamander (S. C. Kinnamon, et al, Chemical Senses 13: 355 - 366, 1988). Briefly, a fresh mud puppy tongue is incubated with collagenase, the non-gustatory epithelium is peeled off the surface, and individual taste buds are gently drawn into a micropipette using a dissecting microscope at 50X magnification. The taste buds are plated into small vessels, that are coated with Cell-Tak, containing culture media. The taste cells can remain viable up to 18 days and maintain normal functions (C. Ruiz, et al, Experimental Cell Biology of Taste and Olfaction, Current Techniques and Protocols, A. I. Spielman and J. G. Brand, eds., CRC Press, 1995, pp. 79 - 84). The taste cells are labeled intracellularly with a marker compound that fluoresces in a dose-dependent fashion to calcium ion concentration. Since an increase in the intracellular calcium ion concentration is one of the last steps in converging biochemical signal transduction pathways for bitterness, the fluorescent marker correlates with taste cell response to bitterness (D. Restrepo, et al, Experimental Cell Biology of Taste and Olfaction, Current Techniques and Protocols, A. I. Spielman and J. G. Brand, eds., CRC Press, 1995, pp. 387 - 398). Labeled taste cells are observed microscopically using image analysis software. Using a micropipette, taste cells are exposed to bitter-tasting compounds by adding the compounds in media near the taste cell. Cells that respond to the bitter-tasting compound show an increase in fluorescence intensity. Bitter inhibitors are tested by adding them to the test solution with the bitter-tasting compound. The response of individual taste cells to bitter-tasting compounds and to bitter-tasting compounds plus inhibitor are monitored by measuring the fluorescent intensity using a microscope. Images are stored electronically and image analysis software is used to analyze the data (D. Restrepo, et al, Biophysical Journal 64: 1961 - 1966, 1993).

[1] = test system: Pig taste tissue tyrosine phosphatase; test: Protein tyrosine phosphatase activity of pig taste tissue homogenate, phosphotyrosine peptide substrates, ELISA; type: biochemical; settings: for % Total Phosphatase Activity: pig taste tissue 615 ug/ml protein, 10°C for 20 min
Procedure: Taste tissue (circumvallate papillae) is dissected from fresh pig tongue and homogenized in buffer. Protein tyrosine phosphatase activity is measured using peptides containing phosphotyrosine as the substrate. Two substrates are used. […] The removal of phosphate from the phosphotyrosines is determined by measurement of phosphotyrosine concentration, using an ELISA, after reaction of the peptide substrate with pig taste tissue. The activity of purified tyrosine phosphatase is determined in each experiment as a control.
In this experiment, pig taste tissue and peptide substrate are combined in a buffer of 20 mM Tris, 0.1% beta-mercaptoethanol, and 1 mg/ml BSA, pH 7.0. A total volume of 100 ul in each well of a 96-well microtiter plate is used. […] The enzyme reaction is done at 10°C for 20 min. The reaction is stopped by the addition of 25 ul 400 uM sodium orthovanadate. […]
In another experiment using the same conditions as described above, the tyrosine dephosphorylation of peptide substrate 1 is measured after 1, 2, 3, 4, 5, 6, 7 and 8 minute reactions at room temperature with pig taste tissue (41 ug/ml protein) as the enzyme source.

[2] = test system: purified protein tyrosine phosphatase; test: Purified protein tyrosine phosphatase, dephosphorylation of phosphotyrosine-containing peptide substrates; type: biochemical; settings: experiments not described
alkaline phosphatase = alkaline phosphatase (Bos taurus, UniProt P19111); type: biochemical, bovine; settings: PNPP substrate
alkaline phosphatase, sequence (P19111 20-506): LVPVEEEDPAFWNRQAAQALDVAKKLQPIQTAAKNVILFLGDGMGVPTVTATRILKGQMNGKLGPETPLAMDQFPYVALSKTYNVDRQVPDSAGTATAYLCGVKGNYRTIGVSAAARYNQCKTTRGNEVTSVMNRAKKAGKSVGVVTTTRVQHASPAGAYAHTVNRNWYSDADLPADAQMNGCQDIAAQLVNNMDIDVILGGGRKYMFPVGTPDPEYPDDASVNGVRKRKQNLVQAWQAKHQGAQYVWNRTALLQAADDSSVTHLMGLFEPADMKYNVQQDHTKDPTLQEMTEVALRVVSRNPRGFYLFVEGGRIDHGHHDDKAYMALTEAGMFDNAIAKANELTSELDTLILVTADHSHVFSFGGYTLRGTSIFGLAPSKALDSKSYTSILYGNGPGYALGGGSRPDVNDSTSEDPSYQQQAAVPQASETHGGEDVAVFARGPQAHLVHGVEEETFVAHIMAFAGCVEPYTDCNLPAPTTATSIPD
Procedure: Enzyme kinetics experiments are done using purified alkaline phosphatase from bovine intestine and the substrate para-nitrophenyl phosphate (PNPP). The formation of colored para-nitrophenol (PNP) from colorless PNPP is followed by measuring the color formation in the presence of inhibitor at several concentrations.
Specifically, enzyme reactions are done in a volume of 200 ul containing 12.5 mU/ml alkaline phosphatase, PNPP at concentrations between 0.5-200 mM, and an inhibitor at concentrations between 0-100 mM. […] Phosphoserine is the natural substrate for this enzyme. The final buffer solution is 0.9 M diethanolamine and 0.5 mM […], pH 9.8, mixed 3:1 (v:v) with water. Reactions are done in a 96-well microtiter plate. The enzyme reaction is initiated by the addition of the enzyme. Each reaction mixture is done in triplicate. The enzyme reaction is monitored by measuring the optical density (OD) at 405 nm, with a reference OD of 490 nm. The OD's are read every 30 seconds over a 15 minute period at room temperature. PNP concentration is determined based on a standard curve correlating OD405/490 vs. PNP concentration. […] The data is then transformed and plotted as the Kmapp / Vmax. vs. inhibitor concentration. From these plots the dissociation constant of the enzyme-inhibitor complex, Ki, is determined. The x-intercept on this plot equals (-Ki). […]

[3] = target: protein tyrosine phosphatase (Yersinia enterocolitica, UniProt P15273); test: Protein tyrosine phosphatase enzyme kinetics with PNPP substrate; type: biochemical; settings: pH 7.5
protein tyrosine phosphatase, sequence (P15273 whole entry): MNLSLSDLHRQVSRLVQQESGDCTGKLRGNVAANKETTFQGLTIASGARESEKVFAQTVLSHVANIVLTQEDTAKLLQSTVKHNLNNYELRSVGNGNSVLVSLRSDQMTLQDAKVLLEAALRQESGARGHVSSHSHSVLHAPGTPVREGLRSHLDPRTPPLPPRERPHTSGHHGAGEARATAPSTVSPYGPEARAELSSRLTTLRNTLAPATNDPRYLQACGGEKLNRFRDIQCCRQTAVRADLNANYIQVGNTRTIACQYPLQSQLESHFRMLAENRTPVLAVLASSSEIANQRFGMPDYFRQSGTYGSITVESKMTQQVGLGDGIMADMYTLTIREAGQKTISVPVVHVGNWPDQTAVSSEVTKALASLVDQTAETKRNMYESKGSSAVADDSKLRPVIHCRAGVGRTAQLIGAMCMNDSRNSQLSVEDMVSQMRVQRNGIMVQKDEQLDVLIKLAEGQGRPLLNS
Procedure: Enzyme kinetics are done using purified protein tyrosine phosphatase from the bacteria, Yersinia enterocolitica, recombinant form, with PNPP as the substrate. The enzyme kinetics experiments are done similarly to the kinetics experiments for alkaline phosphatase and acid phosphatase described above.
Each final reaction mixture contains 20 mM Tris, 0.1 % beta-mercaptoethanol, and 0.1% bovine serum albumin at pH 7.5. The ionic strength of each reaction mixture is the same and is balanced by the addition of the appropriate amount of NaCl. Activity of this enzyme is extremely sensitive to ionic strength. Each reaction is begun with the addition of tyrosine phosphatase. The formation of PNP is monitored by measuring the OD405/490 at 30 second intervals over a 30 minute period. The enzyme velocity is linear over this time period under these conditions. The Ki values are calculated as described above for alkaline phosphatase (Table 2).

SMILES: O=C(O)CP(=O)(O)O [phosphonic acetic acid]
- effect on taste cell response to denatonium benzoate (mud puppy taste cells): small reduction in response
- effect on taste cell response to dextromethorphan (mud puppy taste cells): small reduction in response

SMILES: F [calcium fluoride]
- % Total Phosphatase Activity ([1]; Peptide Substrate 1): 109%
- % Total Phosphatase Activity ([1]; Peptide Substrate 2): 96%
- time until all phosphates are removed from peptide substrate 1 ([1]; pig taste tissue 41 ug/ml protein, room temperature, calcium fluoride added, concentration not given): 2 min
- effect on tyrosine phosphatase activity against peptide substrates [2]: does not affect tyrosine phosphatase activity

SMILES: NCCC(O)(P(=O)(O)O)P(=O)(O)O [Pamidronic acid, pamidronic acid]
- effect on taste cell response to denatonium benzoate (mud puppy taste cells): small reduction in response
- effect on taste cell response to dextromethorphan (mud puppy taste cells): small reduction in response

SMILES: C=CCc1ccc(OP(=O)(O)O)c(OC)c1 [EMP, eugenylmonophosphate]
- effect on tyrosine phosphatase activity against peptide substrates [2]: inhibits the activity
- type of inhibition of alkaline phosphatase (alkaline phosphatase): competitively inhibited
- Ki ([3]; 22°C): 3.7 mM
- Ki ([3]; 37°C): 3.3 mM

SMILES: CC1CCC(C(C)C)C(OP(=O)(O)O)C1 (stereo not drawn) [MMP, menthylmonophosphate]
- type of inhibition of alkaline phosphatase (alkaline phosphatase): competitively inhibited

SMILES: CC[N+](CC)(CC(=O)Nc1c(C)cccc1C)Cc1ccccc1 [denatonium benzoate]
- taste cell response to bitter tasting compound (mud puppy taste cells): increase in intracellular calcium concentration

SMILES: CN(C)CCC(c1ccc(Cl)cc1)c1ccccn1 (stereo not drawn) [chlorpheniramine maleate]
- taste cell response to bitter tasting compound (mud puppy taste cells): increase in intracellular calcium concentration

SMILES: C=C1[C@@H](O)[C@@H]2O[C@]3(CC[C@H](/C=C/[C@@H](C)[C@@H]4CC(C)=C[C@@]5(O[C@H](C[C@@](C)(O)C(=O)O)CC[C@H]5O)O4)O3)CC[C@H]2O[C@@H]1[C@@H](O)C[C@H](C)[C@H]1O[C@@]2(CCCCO2)CC[C@H]1C [okadaic acid]
- effect on taste cell response to denatonium benzoate (mud puppy taste cells): has no effect on response
- effect on taste cell response to dextromethorphan (mud puppy taste cells): has no effect on response

SMILES: N[C@@H](COP(=O)(O)O)C(=O)O [Phosphoserine, reference compound]
- type of inhibition of alkaline phosphatase (alkaline phosphatase): competitively inhibited

SMILES: [Na+].[Na+].[Na+].[O]=[V]([O-])([O-])[O-] [sodium orthovanadate]
- % Total Phosphatase Activity ([1]; Peptide Substrate 1): 32%
- % Total Phosphatase Activity ([1]; Peptide Substrate 2): 46%
- time until complete dephosphorylation of substrate 1 ([1]; pig taste tissue 41 ug/ml protein, room temperature, final concentration 100 nmoles/ml): 7 min
- effect on tyrosine phosphatase activity against peptide substrates [2]: inhibits the tyrosine phosphatase activity
- effect on taste cell response to denatonium benzoate (mud puppy taste cells): inhibits the response

SMILES: COc1ccc2c(c1)[C@]13CCCC[C@@H]1[C@H](C2)N(C)CC3 [dextromethorphan]
- taste cell response to bitter tasting compound (mud puppy taste cells): increase in intracellular calcium concentration

SMILES: N[C@@H](Cc1ccc(OP(=O)(O)O)cc1)C(=O)O [phosphotyrosine]
- time until complete dephosphorylation of substrate 1 ([1]; pig taste tissue 41 ug/ml protein, room temperature, final concentration 10 nmoles/ml): 7 min
- effect on tyrosine phosphatase activity against peptide substrates [2]: inhibit the dephosphorylation
- effect on taste cell response to chlorpheniramine maleate (mud puppy taste cells; inhibitor mixed with chlorpheniramine maleate): decreases the response
- effect on taste cell response to denatonium benzoate (mud puppy taste cells): decreases the response
- effect on taste cell response to dextromethorphan (mud puppy taste cells): decreases the response

SMILES: O=P(O)(O)CP(=O)(O)O [Methylene diphosphonic acid]
- share of taste cells tested with small decrease in response to denatonium benzoate (mud puppy taste cells; denatonium benzoate): 50%
- effect on taste cell response to denatonium benzoate (mud puppy taste cells): small decrease in response

SMILES: Cc1ccc(C(C)C)c(OP(=O)(O)O)c1 [ThMP, thymylmonophosphate]
- type of inhibition of alkaline phosphatase (alkaline phosphatase): competitively inhibited
- Ki ([3]; 22°C): 3.6 mM
